Measurements published in US6346517B1, “Synergy between low molecular weight heparin and platelet aggregation inhibitors, providing a combination therapy for the prevention and treatment of various thromboembolic disorders” (Bristol-Myers Squibb Pharma Company, priority 1999, dated 2002).
Entries after “also recorded” stand apart in the source; their conditions may differ. Each block holds one molecule with its values, some of them ahead of it.

Key:
[1] = tested on: preformed clot; assay: Thrombolysis of a preformed carotid clot in rats (reperfusion, patency, reocclusion); type: in vivo; conditions: for effectiveness in preventing thrombosis in this rat model: 0.3 mg/kg i.v., free acids
Description: (§1) Rabbits were anesthetized with ketamine (50 mg/kg i.m.) and xylazine (10 mg/kg i.m.) and then surgically prepared with arterial and venous catheters. An electromagnetic flow probe was placed on a segment of an isolated carotid artery to monitor blood flow. Thrombus formation was induced by electrical stimulation of the carotid artery for 3 min at 4 mA using an external stainless-steel bipolar electrode. Carotid blood flow was measured continuously over a 90-min period to monitor thrombus occlusion. Test agents were infused intravenously 1 hour prior to the electrical stimulation of the carotid artery and continuously during the 90-min period.
Experiments were conducted in rats anesthetized with ketamine (110 mg/kg i.m.) and xylazine (10 mg/kg i.m.). The protocol is similar to the rabbit protocol as described above in Example 1 except that the free acid of a compound of the formula (B): [drawing 11]
or the free acid of sibrafiban and/or TPA were given 5 min after a preformed clot was formed. The measured parameters were time to reperfusion, duration of patency and incidence of reocclusion. The doses of TPA, sibrafiban and compound B used were 1, 0.3 and 0.3 mg/kg i.v., respectively.

[2] = tested on: carotid artery thrombus formation; assay: Electrically induced carotid artery thrombosis, carotid blood flow (rabbit model of arterial thrombosis); type: in vivo; conditions: i.v. infusion from 1 hour before and during 90 min after electrical stimulation, aspirin 1 mg/kg/hr, Compound (A) 0.03 mg/kg/hr, Fragmin 60 U/kg/hr
Description: as §1

[3] = tested on: clot formation in human whole blood; assay: Computerized thromboelastography (TEG): mediator-induced clot formation under shear in whole blood; type: cell-based; conditions: for enhancement of clot strength by platelets: TF-accelerated clot formation
Description: Clot formation was monitored at 37° C. in an oscillating plastic cylindrical cuvette (“cup”) and a coaxially suspended stationary piston (“pin”) with a 1 mm clearance between the surfaces, using a computerized Thrombelastograph (CTEG Model 3000, Haemoscope, Skokie, IL). The cup oscillates 4°45′ ( 1/12 radian) in either direction every 4.5 seconds, with a 1 second mid-cycle stationary period; resulting in a frequency of 0.1 Hz and a maximal shear rate of 0.1 per second. The pin is suspended by a torsion wire that acts as a torque transducer. […] The torque experienced by the pin (relative to the cup's oscillation) is plotted as a function of time. The amplitude on the TEG tracing is a measure of the rigidity of the clot; the peak strength or the shear elastic modulus attained by the clot, G, is a function of clot rigidity and can be calculated from the maximal amplitude (MA) of the TEG tracing.
The following parameters were measured from the TEG tracing (FIG. 5):
R, the reaction time (gelation time) represents the latent period before the establishment of a 3-dimensional fibrin gel network (with measurable rigidity of amplitude=2 mm).
Maximum Amplitude (MA, in mm) is the peak rigidity manifested by the clot.
Shear elastic modulus or clot strength (G, dynes/cm^2) is defined by: G=(5000* MA)/(96-MA) for computerized TEG. […]
To assess the effect of the TF modification on peak clot strength (G) was measured with and without the addition of TF in paired samples of WB and PRP. To document the contribution of activated platelets to the elastic modulus of fibrin clots, the effect of platelet number was measured by serially diluting PRP with PPP. The platelet count of each dilution was measured before performing TEG. […] The Thrombelastograph maximum amplitude (MA) for platelets MA (PLT)) was calculated by subtracting the MA from a platelet-poor plasma (PPP) sample MA (PPP) determined in one thromboelastography well from that of whole blood MA (WB) run simultaneously in the second thromboelastography well.

[4] = rat, TPA 1, sibrafiban 0.3, compound B 0.3 mg/kg i.v., given 5 min after preformed clot, free acids used

Molecule: CC(=O)O.CCCCOC(=O)N[C@@H](CNC(=O)C[C@H]1CC(c2ccc(C(=N)N)cc2)=NO1)C(=O)OC (stereo in doubt) [Compound B, roxifiban]
- effectiveness in preventing thrombosis in this rat model [1]: equal effective

Molecule: CC(=O)Oc1ccccc1C(=O)O [Aspirin, aspirin, reference compound]
- effect on occlusion of the artery / carotid blood flow [2]: did not prevent the occlusion of the artery

Molecule: CS(=O)(=O)O.Cc1noc(C)c1S(=O)(=O)N[C@@H](CNC(=O)C[C@H]1CC(c2ccc(C(=N)N)cc2)=NO1)C(=O)O [Compound (A)]
- effect on occlusion of the artery / carotid blood flow [2]: did not prevent the occlusion of the artery; also recorded: not effective

Molecule: CC(=O)O.CCCCOC(=O)N[C@@H](CNC(=O)C[C@H]1CC(c2ccc(C(=N)N)cc2)=NO1)C(=O)OC [Compound B, roxifiban]
- enhancement of clot strength by platelets [3]: inhibited

Molecule: CCOC(=O)COC1CCN(C(=O)[C@H](C)NC(=O)c2ccc(C(=N)NO)cc2)CC1 [sibrafiban, reference compound]
- effectiveness in preventing thrombosis in this rat model [1]: equal effective

- IC50, clot formation (clot retraction) induced by LPS ([3]; LPS 6.25 μg, human whole blood, mean ± SEM): 0.09 ± 0.01 µg/mL
Molecule: TFPI: Tissue factor pathway inhibitor

Molecule: tissue plasminogen activator [TPA]
- Incidence of reocclusion ([1]; rat, TPA 1, sibrafiban 0.3, compound B 0.3 mg/kg i.v., given 5 min after preformed clot, animals reoccluded/total): 15/17
- Duration of patency [1, 4]: 29 ± 2%
- Time to reperfusion [1, 4]: 32 ± 6 min

B1: Abciximab: c7E3 Fab (Abciximab, Centocor), platelet GPIIb/IIIa antagonist (antibody, chains of the INN, looked up, V domains shown)
VH: EVQLQQSGTVLARPGASVKMSCEASGYTFTNYWMHWVKQRPGQGLEWIGAIYPGNSDTSYIQKFKGKAKLTAVTSTTSVYMELSSLTNEDSAVYYCTLYDGYYVFAYWGQGTLVTVSA
VL: EIVLTQSPVTLSVTPGDSVSLSCRASRDISNNLHWFQQTSHESPRLLIKYASQSMSGIPSRFSGSGSGTDFTLSINSVETEDFGMYFCQQTNSWPYTFGGGTKLEIK
modifications: Fab
notes: c7E3 Fab (Abciximab, Centocor), platelet GPIIb/IIIa antagonist
- enhancement of clot strength by platelets [3]: inhibited
